Laboratory results published in ChEMBL document CHEMBL4428084, “Discovery and Optimization of N-(4-(3-Aminophenyl)thiazol-2-yl)acetamide as a Novel Scaffold Active against Sensitive and Resistant Cancer Cells” (J Med Chem, 2016).

Experiments:
A-375 [1] = assay: Cytotoxicity against vemurafenib-sensitive human A375 cells assessed as cell viability at 10 uM after 48 hrs by trypan blue exclusion assay relative to control; assay type: functional; details: A-375, 48 h, read-out: Activity
BXPC-3 [2] = assay: Cytotoxicity against gemcitabine-sensitive human BxPC3 cells assessed as cell viability at 10 uM after 48 hrs by trypan blue exclusion assay relative to control; assay type: functional; details: BXPC-3, 48 h, read-out: Activity
MIA PaCa-2 [3] = assay: Cytotoxicity against gemcitabine-resistant human MIAPaCa2 cells assessed as cell viability at 10 uM after 48 hrs by trypan blue exclusion assay relative to control; assay type: functional; details: MIA PaCa-2, 48 h, read-out: Activity
[4] = Cytotoxicity against vemurafenib-resistant human A375 RIV cells assessed as cell viability at 1 uM after 48 hrs by trypan blue exclusion assay relative to control; assay type: functional; details: A-375, 48 h, read-out: Activity
[5] = Cytotoxicity against vemurafenib-resistant human A375 R5C3 cells assessed as cell viability at 10 uM after 48 hrs by trypan blue exclusion assay relative to control; assay type: functional; details: A-375, 48 h, read-out: Activity
K562 [6] = assay: Cytotoxicity against imatinib-resistant human K562 cells assessed as cell viability at 10 uM after 48 hrs by trypan blue exclusion assay relative to control; assay type: functional; details: K562, 48 h, read-out: Activity
K562 [7] = assay: Cytotoxicity against imatinib-sensitive human K562 cells assessed as cell viability at 10 uM after 48 hrs by trypan blue exclusion assay relative to control; assay type: functional; details: K562, 48 h, read-out: Activity
[8] = Cytotoxicity against vemurafenib-resistant human A375 RIV cells assessed as cell viability at 10 uM after 48 hrs by trypan blue exclusion assay relative to control; assay type: functional; details: A-375, 48 h, read-out: Activity
[9] = Cytotoxicity against vemurafenib-resistant human A375 R5C3 cells assessed as cell viability at 5 uM after 48 hrs by trypan blue exclusion assay relative to control; assay type: functional; details: A-375, 48 h, read-out: Activity
[10] = Cytotoxicity against vemurafenib-resistant human A375 RIV cells assessed as cell viability at 5 uM after 48 hrs by trypan blue exclusion assay relative to control; assay type: functional; details: A-375, 48 h, read-out: Activity
A-375 [11] = assay: Cytotoxicity against vemurafenib-sensitive human A375 cells assessed as cell viability at 5 uM after 48 hrs by trypan blue exclusion assay relative to control; assay type: functional; details: A-375, 48 h, read-out: Activity
MIA PaCa-2 [12] = assay: Cytotoxicity against gemcitabine-resistant human MIAPaCa2 cells assessed as cell viability at 0.1 uM after 48 hrs by trypan blue exclusion assay relative to control; assay type: functional; details: MIA PaCa-2, 48 h, read-out: Activity
BXPC-3 [13] = assay: Cytotoxicity against gemcitabine-sensitive human BxPC3 cells assessed as cell viability at 0.1 uM after 48 hrs by trypan blue exclusion assay relative to control; assay type: functional; details: BXPC-3, 48 h, read-out: Activity
A-375 [14] = assay: Induction of apoptosis in human A375 cells assessed as cells with active caspase-3 at 1 uM after 12 hrs by flow cytometry (reference value: 4.16%); assay type: functional
K562 [15] = assay: Cytotoxicity against imatinib-sensitive human K562 cells assessed as cell viability at 1 uM after 48 hrs by trypan blue exclusion assay relative to control; details: K562, 48 h, read-out: Activity
K562 [16] = assay: Cytotoxicity against imatinib-resistant human K562 cells assessed as cell viability at 1 uM after 48 hrs by trypan blue exclusion assay relative to control; details: K562, 48 h, read-out: Activity

## CCCCCCCC(=O)Nc1cccc(-c2csc(NC(C)=O)n2)c1
A-375 [1]
  viability at 10 µM: 40%

## CC(=O)Nc1nc(-c2cccc(NS(=O)(=O)c3ccc(C(C)(C)C)cc3)c2)cs1
BXPC-3 [2]
  viability at 10 µM: < 1%
MIA PaCa-2 [3]
  viability at 10 µM: < 1%
[4]
  viability at 1 µM: 39.4%
A-375 [1]
  viability at 10 µM: 1.5%
[5]
  viability at 10 µM: 51.1%
K562 [6]
  viability at 10 µM: 35.1%
K562 [7]
  viability at 10 µM: 19.4%
[8]
  viability at 10 µM: < 1%

## CC(=O)Nc1nc(-c2cccc([N+](=O)[O-])c2)cs1
A-375 [1]
  viability at 10 µM: 47.3%

## CC(=O)Nc1nc(-c2cccc(NS(=O)(=O)c3ccc4c(ccn4C)c3)c2)cs1
A-375 [1]
  viability at 10 µM: 46.5%

## CC(=O)Nc1nc(-c2cccc(NS(=O)(=O)c3ccc(C)cc3)c2)cs1
BXPC-3 [2]
  viability at 10 µM: 21.6%
MIA PaCa-2 [3]
  viability at 10 µM: 49.1%
A-375 [1]
  viability at 10 µM: 19.8%
[5]
  viability at 10 µM: 75.9%
K562 [6]
  viability at 10 µM: 38.5%
K562 [7]
  viability at 10 µM: 15.3%
[8]
  viability at 10 µM: 53.3%

## CCCS(=O)(=O)Nc1ccc(F)c(C(=O)c2c[nH]c3ncc(-c4ccc(Cl)cc4)cc23)c1F [VEMURAFENIB]
[9]
  viability at 5 µM: 101%
[10]
  viability at 5 µM: 76.7%
A-375 [11]
  viability at 5 µM: 44%

## CC(=O)Nc1nc(-c2cccc(NC(=O)c3ccc4ccccc4c3)c2)cs1
BXPC-3 [2]
  viability at 10 µM: 1.5%
MIA PaCa-2 [3]
  viability at 10 µM: 7%
A-375 [1]
  viability at 10 µM: 18.3%
[5]
  viability at 10 µM: 63.8%
K562 [6]
  viability at 10 µM: 89.7%
K562 [7]
  viability at 10 µM: 53.9%
[8]
  viability at 10 µM: 30%

## CC(=O)Nc1nc(-c2cccc(NS(=O)(=O)c3cc4ccccc4s3)c2)cs1
A-375 [1]
  viability at 10 µM: 29.2%

## CC(=O)Nc1nc(-c2cccc(NS(=O)(=O)c3ccc4c(c3)OCCO4)c2)cs1
A-375 [1]
  viability at 10 µM: 29.6%

## CC(=O)Nc1nc(-c2cccc(NS(=O)(=O)c3ccc4c(c3)CCC4)c2)cs1
A-375 [1]
  viability at 10 µM: 26.3%

## CC(=O)Nc1nc(-c2cccc(NS(=O)(=O)c3ccc4ccccc4c3)c2)cs1
BXPC-3 [2]
  viability at 10 µM: 0.6%
MIA PaCa-2 [3]
  viability at 10 µM: 7%
A-375 [1]
  viability at 10 µM: 3.3%
[5]
  viability at 10 µM: 49.6%
K562 [6]
  viability at 10 µM: 25.6%
K562 [7]
  viability at 10 µM: 31%
[8]
  viability at 10 µM: 33.3%

## CCc1ccc(S(=O)(=O)Nc2cccc(-c3csc(NC(C)=O)n3)c2)cc1
BXPC-3 [2]
  viability at 10 µM: 21%
MIA PaCa-2 [3]
  viability at 10 µM: 40.7%
A-375 [1]
  viability at 10 µM: 7.5%
[5]
  viability at 10 µM: 80.1%
K562 [6]
  viability at 10 µM: 27%
K562 [7]
  viability at 10 µM: 12.8%
[8]
  viability at 10 µM: 26.7%

## CC(=O)Nc1nc(-c2cccc(NS(=O)(=O)c3ccc(-c4ccc(C)cc4)cc3)c2)cs1
A-375 [1]
  viability at 10 µM: 26.3%

## CC(=O)Nc1nc(-c2cccc(NC(=O)c3ccco3)c2)cs1
A-375 [1]
  viability at 10 µM: 29.2%

## CC(=O)Nc1nc(-c2cccc(NS(=O)(=O)c3cccc(C)c3)c2)cs1
A-375 [1]
  viability at 10 µM: 51.2%

## CC(=O)Nc1nc(-c2cccc(NS(=O)(=O)c3ccc(-c4ccccc4)cc3)c2)cs1
A-375 [1]
  viability at 10 µM: 33.9%

## Nc1ccn([C@@H]2O[C@H](CO)[C@@H](O)C2(F)F)c(=O)n1 [GEMCITABINE]
MIA PaCa-2 [12]
  viability at 0.1 µM: 86.5%
BXPC-3 [13]
  viability at 0.1 µM: 2%

## CCCCCc1ccc(S(=O)(=O)Nc2cccc(-c3csc(NC(C)=O)n3)c2)cc1
BXPC-3 [2]
  viability at 10 µM: < 1%
MIA PaCa-2 [3]
  viability at 10 µM: < 1%
[4]
  viability at 1 µM: 27.7%
A-375 [1]
  viability at 10 µM: 2.8%
[5]
  viability at 10 µM: 15.6%
K562 [6]
  viability at 10 µM: 72.7%
K562 [7]
  viability at 10 µM: 51%
[8]
  viability at 10 µM: < 1%

## CC(=O)Nc1nc(-c2cccc(NS(=O)(=O)c3ccc(I)cc3)c2)cs1
BXPC-3 [2]
  viability at 10 µM: < 1%
MIA PaCa-2 [3]
  viability at 10 µM: 15.8%
A-375 [1]
  viability at 10 µM: < 1%
[5]
  viability at 10 µM: 8.4%
K562 [6]
  viability at 10 µM: 27%
K562 [7]
  viability at 10 µM: 15%
[8]
  viability at 10 µM: 10%

## CC(=O)Nc1nc(-c2cccc(NS(=O)(=O)c3ccccc3)c2)cs1
A-375 [1]
  viability at 10 µM: 72.2%

## CC(=O)Nc1nc(-c2cccc(NS(=O)(=O)c3cccc4ccccc34)c2)cs1
A-375 [1]
  viability at 10 µM: 20.4%

## CC(=O)Nc1nc(-c2cccc(NS(=O)(=O)c3cccs3)c2)cs1
A-375 [1]
  viability at 10 µM: 29.6%

## CC(=O)Nc1nc(-c2cccc(NS(=O)(=O)c3ccc4oc(=O)ccc4c3)c2)cs1
A-375 [1]
  viability at 10 µM: 65.5%

## CC(=O)Nc1nc(-c2cccc(NS(=O)(=O)c3cccc4cccnc34)c2)cs1
A-375 [1]
  viability at 10 µM: 59.5%

## CN[C@@H]1C[C@H]2O[C@@](C)([C@@H]1OC)n1c3ccccc3c3c4c(c5c6ccccc6n2c5c31)C(=O)NC4 [STAUROSPORINE]
A-375 [14]
  Activity: 46.95%

## CC(=O)Nc1nc(-c2cccc(NS(=O)(=O)c3cccc4c3ccn4C)c2)cs1
A-375 [1]
  viability at 10 µM: 60.7%

## CCCCc1ccc(S(=O)(=O)Nc2cccc(-c3csc(NC(C)=O)n3)c2)cc1
BXPC-3 [2]
  viability at 10 µM: 4.3%
MIA PaCa-2 [3]
  viability at 10 µM: < 1%
A-375 [1]
  viability at 10 µM: 2.2%
[5]
  viability at 10 µM: 9.9%
K562 [6]
  viability at 10 µM: 60.9%
K562 [7]
  viability at 10 µM: 51.6%
[8]
  viability at 10 µM: 26.7%

## CCCCC#Cc1ccc(S(=O)(=O)Nc2cccc(-c3csc(NC(C)=O)n3)c2)cc1
BXPC-3 [2]
  viability at 10 µM: < 1%
MIA PaCa-2 [3]
  viability at 10 µM: < 1%
A-375 [1]
  viability at 10 µM: < 1%
[5]
  viability at 10 µM: 7.8%
K562 [6]
  viability at 10 µM: 35.1%
K562 [7]
  viability at 10 µM: 26.9%
[8]
  viability at 10 µM: 10%

## CC(=O)Nc1nc(-c2cccc(NS(=O)(=O)c3c[nH]cn3)c2)cs1
A-375 [1]
  viability at 10 µM: 45.7%

## CC(=O)Nc1nc(-c2cccc(NS(=O)(=O)c3cn(C)cn3)c2)cs1
A-375 [1]
  viability at 10 µM: 36.8%

## CC(=O)Nc1nc(-c2cccc(NS(=O)(=O)c3ccc(C)s3)c2)cs1
A-375 [1]
  viability at 10 µM: 37.5%

## CC(=O)Nc1nc(-c2cccc(N)c2)cs1
A-375 [1]
  viability at 10 µM: 38.4%

## CC(=O)Nc1nc(-c2cccc(NS(=O)(=O)c3sc(C)nc3C)c2)cs1
A-375 [1]
  viability at 10 µM: 29.2%

## Cc1ccc(NC(=O)c2ccc(CN3CCN(C)CC3)cc2)cc1Nc1nccc(-c2cccnc2)n1 [IMATINIB]
K562 [15]
  viability at 1 µM: 9.7%
K562 [16]
  viability at 1 µM: 85.5%
